{
  "source": "patent US20080051384A1",
  "about": "“ANTIVIRAL AGENTS” (Genelabs Technologies, Inc., priority 2006, published 2008)",
  "data": [
    {"assay": "Replicon Assay (luciferase, ET cell line)", "format": "cell-based, HCV", "details": "Hepatitis C virus; tested at 6.25 μM; inhibition of replication (luciferase activity) relative to no compound control", "procedure": "A cell line, ET (Huh-lucubineo-ET) was used for screening of compounds for inhibiting HCV RNA dependent RNA polymerase. The ET cell line was stably transfected with RNA transcripts harboring a I389luc-ubi-neo/NS3-3′/ET; replicon with firefly luciferase-ubiquitin-neomycin phosphotransferase fusion protein and EMCV-IRES driven NS3-5B polyprotein containing the cell culture adaptive mutations (E1202G; T12801; K1846T) (Krieger at al, 2001 and unpublished). The ET cells were grown in DMEM, supplemented with 10% fetal calf serum, 2 mM Glutamine, Penicillin (100 IU/mL)/Streptomycin (100 μg/mL), 1× nonessential amino acids, and 250 μg/mL G418 (“Geneticin”). They are all available through Life Technologies (Bethesda, Md.). The cells were plated at 0.5-1.0×10^4 cells/well in the 96 well plates and incubated for 24 hrs before adding test compound. The compounds were added to the cells to achieve a final concentration of 0.1 nM to 50 μm and a final DMSO concentration of 0.5%. Luciferase activity was measured 48-72 hours later by adding a lysis buffer and the substrate (Catalog number Glo-lysis buffer E2661 and Bright-Glo luciferase system E2620 Promega, Madison, Wis.). Cells should not be too confluent during the assay. Percent inhibition of replication data was plotted relative to no compound control. Under the same condition, cytotoxicity of the compounds were determined using cell proliferation reagent, WST-1 (Roche, Germany). The compounds showing antiviral activities, but no significant cytotoxicities were chosen to determine EC50 and TC50, the effective concentration and toxic concentration at which 50% of the maximum inhibition is observed. For these determinations, a 10 point, 2-fold serial dilution for each compound was used, which spans a concentration range of 1000 fold. EC50 and similarly the TC50 values were calculated by fitting % inhibition at each concentration to the following equation: % inhibition=100%/[(EC50/[I])^b+1] where b is Hill's coefficient.", "units": {"inhibition at 6.25 µM": "%"}, "values": [
      {"smiles": "Cc1nc(C)c(-c2ccc3cc(-c4c(C5=CCCCC5)c5sc(C(=O)O)cc5n4CC(=O)N4CCOCC4)ccc3n2)s1", "note": "[compound 187, 6-Cyclohex-1-enyl-5-[2-(2,4-dimethyl-thiazol-5-yl)-quinolin-6-yl]-4-(2-morpholin-4-yl-2-oxo-ethyl)-4H-thieno[3,2-b]pyrrole-2-carboxylic acid]", "inhibition at 6.25 µM": 63},
      {"smiles": "Cc1nc(C)c(-c2ccc3cc(-c4c(C5CCCCC5)c5sc(C(=O)O)cc5n4CC(=O)N4CCOCC4)ccc3n2)s1", "note": "[compound 189, 6-cyclohexyl-5-[2-(2,4-dimethyl-thiazol-5-yl)-quinolin-6-yl]-4-(2-morpholin-4-yl-2-oxo-ethyl)-4H-thieno[3,2-b]pyrrole-2-carboxylic acid]", "inhibition at 6.25 µM": 100},
      {"smiles": "O=C(O)c1cc2c(s1)c(C1=CCCCC1)c(-c1ccc3nc(-c4ccccc4F)ccc3c1)n2CC(=O)N1CCOCC1", "note": "[compound 186, 6-Cyclohex-1-enyl-5-[2-(2-fluoro-phenyl)-quinolin-6-yl]-4-(2-morpholin-4-yl-2-oxo-ethyl)-4H-thieno[3,2-b]pyrrole-2-carboxylic acid]", "inhibition at 6.25 µM": 75},
      {"smiles": "Cc1nc(C)c(-c2ccc3cc(-c4c(C5CCCCC5)c5sc(C(=O)O)cc5n4CC(=O)N4CCSCC4)ccc3n2)s1", "note": "[compound 190, 6-Cyclohexyl-5-[2-(2,4-dimethyl-thiazol-5-yl)-quinolin-6-yl]-4-(2-oxo-2-thiomorpholin-4-yl-ethyl)-4H-thieno[3,2-b]pyrrole-2-carboxylic acid]", "inhibition at 6.25 µM": 98},
      {"smiles": "O=C(O)c1cc2c(s1)c(C1CCCCC1)c(-c1ccc3nc(-c4ccccc4F)ccc3c1)n2CC(=O)N1CCOCC1", "note": "[compound 188, 6-Cyclohexyl-5-[2-(2-fluoro-phenyl)-quinolin-6-yl]-4-(2-morpholin-4-yl-2-oxo-ethyl)-4H-thieno[3,2-b]pyrrole-2-carboxylic acid]", "inhibition at 6.25 µM": 99},
      {"smiles": "Cc1nc(C)c(-c2ccc3cc(-c4c(C5CCCCC5)c5sc(C(=O)O)cc5n4CC(=O)N4CCCCC4)ccc3n2)s1", "note": "[compound 191, 6-cyclohexyl-5-[2-(2,4-dimethyl-thiazol-5-yl)-quinolin-6-yl]-4-(2-oxo-2-piperidin-1-yl-ethyl)-4H-thieno[3,2-b]pyrrole-2-carboxylic acid]", "inhibition at 6.25 µM": 97}
    ]}
  ]
}
